One data set concerns Plasma. As to the kind of experiment: Metabolic stability in rat plasma after 2 hrs. The data set is classed as ADME, cell-free.
A short description of data set [1]: Half life in human microsomes. It counts as ADME, Microsome.
The nature of data set [2]: AUC (0 to infinity) in Sprague-Dawley rat at 10 mg/kg, iv. The data set is classed as ADME, organism-based. More on the design: time infinity, dose 10 mg/kg, route intravenous. The conditions noted are these: plasma.
The nature of data set [3]: Half life in Sprague-Dawley rat at 10 mg/kg, iv. It counts as ADME, organism-based. More on the design: dose 10 mg/kg, route intravenous. The conditions noted are these: in vivo.
In data set [4] the target is Voltage-dependent T-type calcium channel subunit alpha-1G (Homo sapiens, UniProt O43497). As to the kind of experiment: Inhibition of T-type calcium channel subunit alpha-1G (unknown origin) expressed in HEK293 cells assessed as inactivation of channel current at holding potential of 30 to 100mV by whole-cell patch clamp method. It counts as cell-based.
The target of data set [5] is Voltage-gated inwardly rectifying potassium channel KCNH2 (Homo sapiens, UniProt Q12809). As to the kind of experiment: Inhibition of human ERG by whole-cell patch clamp method. Background: The patch-clamp technique gives a direct electrical read-out from membranes.
Data set [6] concerns the target Voltage-dependent L-type calcium channel subunit alpha-1C (Homo sapiens, UniProt Q13936). As to the kind of experiment: Inhibition of L-type calcium channel subunit-1C (unknown origin) expressed in HEK293 cells by whole-cell patch clamp method. The data set is classed as cell-based.
Data set [7] is described as follows: AUC (0 to infinity) in Sprague-Dawley rat at 10 mg/kg, po. The settings on record: plasma. More on the design: time infinity, dose 10 mg/kg, route oral. It counts as ADME, organism-based.
Data set [8] can be described thus: Cmax in Sprague-Dawley rat at 10 mg/kg, po. The settings on record: in vivo. The arrangement: dose 10 mg/kg, route oral. The data set is classed as ADME, organism-based.
Data set [9] can be described thus: Bioavailability in Sprague-Dawley rat at 10 mg/kg, […]. It counts as ADME, organism-based. The conditions noted are these: in vivo.
A short description of data set [10]: Half life in Sprague-Dawley rat at 10 mg/kg, po. More on the design: dose 10 mg/kg, route oral. The settings on record: in vivo. It counts as ADME, organism-based.
Data set [11] is described as follows: Tmax in Sprague-Dawley rat at 10 mg/kg, po. It counts as ADME, organism-based. More on the design: dose 10 mg/kg, route oral. The settings on record: in vivo.
For data set [12], the system named is HEK293. Kind of data set: Selectivity ratio of IC50 for human ERG to IC50 for T-type calcium channel subunit alpha-1G (unknown origin) expressed in human HEK293 cells. It counts as cell-based.
Data set [13] has as its system HEK293. Kind of data set: Selectivity ratio of IC50 for L-type calcium channel subunit-1C (unknown origin) to IC50 for T-type calcium channel subunit alpha-1G (unknown origin) expressed in HEK293 cells. The data set is classed as cell-based. The settings on record: Homo sapiens.

Voltage-gated inwardly rectifying potassium channel KCNH2, sequence (Q12809 whole entry): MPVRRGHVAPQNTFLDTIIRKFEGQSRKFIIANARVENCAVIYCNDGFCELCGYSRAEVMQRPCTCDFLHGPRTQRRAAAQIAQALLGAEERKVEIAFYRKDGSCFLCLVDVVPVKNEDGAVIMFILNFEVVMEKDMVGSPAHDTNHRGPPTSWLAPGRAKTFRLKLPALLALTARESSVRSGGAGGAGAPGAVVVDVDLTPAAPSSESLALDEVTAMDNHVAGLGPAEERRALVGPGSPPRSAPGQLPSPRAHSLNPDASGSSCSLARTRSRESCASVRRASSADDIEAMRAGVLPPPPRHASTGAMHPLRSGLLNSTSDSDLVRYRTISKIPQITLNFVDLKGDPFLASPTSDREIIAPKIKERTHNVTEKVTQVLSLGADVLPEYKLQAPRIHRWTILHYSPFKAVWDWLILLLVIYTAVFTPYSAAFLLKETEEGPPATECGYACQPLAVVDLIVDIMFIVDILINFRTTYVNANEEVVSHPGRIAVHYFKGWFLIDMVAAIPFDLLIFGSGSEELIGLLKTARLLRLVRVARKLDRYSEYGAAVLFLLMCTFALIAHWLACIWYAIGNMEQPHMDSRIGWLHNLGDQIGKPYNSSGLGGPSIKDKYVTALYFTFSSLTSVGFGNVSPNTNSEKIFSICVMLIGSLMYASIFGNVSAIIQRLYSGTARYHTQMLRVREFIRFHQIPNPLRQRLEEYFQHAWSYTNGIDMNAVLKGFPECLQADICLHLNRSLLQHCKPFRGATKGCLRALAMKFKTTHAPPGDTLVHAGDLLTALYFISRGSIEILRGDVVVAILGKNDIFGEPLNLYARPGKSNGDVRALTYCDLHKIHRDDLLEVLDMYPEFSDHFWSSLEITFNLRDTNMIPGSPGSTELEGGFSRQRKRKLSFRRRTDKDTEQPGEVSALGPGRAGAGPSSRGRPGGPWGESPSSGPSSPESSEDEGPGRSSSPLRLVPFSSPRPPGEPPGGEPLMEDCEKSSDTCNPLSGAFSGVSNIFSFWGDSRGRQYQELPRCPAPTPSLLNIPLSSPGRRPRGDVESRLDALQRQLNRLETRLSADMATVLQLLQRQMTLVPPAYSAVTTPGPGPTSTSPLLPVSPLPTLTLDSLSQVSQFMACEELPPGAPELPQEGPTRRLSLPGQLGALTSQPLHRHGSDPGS
Voltage-dependent T-type calcium channel subunit alpha-1G, sequence (O43497 whole entry): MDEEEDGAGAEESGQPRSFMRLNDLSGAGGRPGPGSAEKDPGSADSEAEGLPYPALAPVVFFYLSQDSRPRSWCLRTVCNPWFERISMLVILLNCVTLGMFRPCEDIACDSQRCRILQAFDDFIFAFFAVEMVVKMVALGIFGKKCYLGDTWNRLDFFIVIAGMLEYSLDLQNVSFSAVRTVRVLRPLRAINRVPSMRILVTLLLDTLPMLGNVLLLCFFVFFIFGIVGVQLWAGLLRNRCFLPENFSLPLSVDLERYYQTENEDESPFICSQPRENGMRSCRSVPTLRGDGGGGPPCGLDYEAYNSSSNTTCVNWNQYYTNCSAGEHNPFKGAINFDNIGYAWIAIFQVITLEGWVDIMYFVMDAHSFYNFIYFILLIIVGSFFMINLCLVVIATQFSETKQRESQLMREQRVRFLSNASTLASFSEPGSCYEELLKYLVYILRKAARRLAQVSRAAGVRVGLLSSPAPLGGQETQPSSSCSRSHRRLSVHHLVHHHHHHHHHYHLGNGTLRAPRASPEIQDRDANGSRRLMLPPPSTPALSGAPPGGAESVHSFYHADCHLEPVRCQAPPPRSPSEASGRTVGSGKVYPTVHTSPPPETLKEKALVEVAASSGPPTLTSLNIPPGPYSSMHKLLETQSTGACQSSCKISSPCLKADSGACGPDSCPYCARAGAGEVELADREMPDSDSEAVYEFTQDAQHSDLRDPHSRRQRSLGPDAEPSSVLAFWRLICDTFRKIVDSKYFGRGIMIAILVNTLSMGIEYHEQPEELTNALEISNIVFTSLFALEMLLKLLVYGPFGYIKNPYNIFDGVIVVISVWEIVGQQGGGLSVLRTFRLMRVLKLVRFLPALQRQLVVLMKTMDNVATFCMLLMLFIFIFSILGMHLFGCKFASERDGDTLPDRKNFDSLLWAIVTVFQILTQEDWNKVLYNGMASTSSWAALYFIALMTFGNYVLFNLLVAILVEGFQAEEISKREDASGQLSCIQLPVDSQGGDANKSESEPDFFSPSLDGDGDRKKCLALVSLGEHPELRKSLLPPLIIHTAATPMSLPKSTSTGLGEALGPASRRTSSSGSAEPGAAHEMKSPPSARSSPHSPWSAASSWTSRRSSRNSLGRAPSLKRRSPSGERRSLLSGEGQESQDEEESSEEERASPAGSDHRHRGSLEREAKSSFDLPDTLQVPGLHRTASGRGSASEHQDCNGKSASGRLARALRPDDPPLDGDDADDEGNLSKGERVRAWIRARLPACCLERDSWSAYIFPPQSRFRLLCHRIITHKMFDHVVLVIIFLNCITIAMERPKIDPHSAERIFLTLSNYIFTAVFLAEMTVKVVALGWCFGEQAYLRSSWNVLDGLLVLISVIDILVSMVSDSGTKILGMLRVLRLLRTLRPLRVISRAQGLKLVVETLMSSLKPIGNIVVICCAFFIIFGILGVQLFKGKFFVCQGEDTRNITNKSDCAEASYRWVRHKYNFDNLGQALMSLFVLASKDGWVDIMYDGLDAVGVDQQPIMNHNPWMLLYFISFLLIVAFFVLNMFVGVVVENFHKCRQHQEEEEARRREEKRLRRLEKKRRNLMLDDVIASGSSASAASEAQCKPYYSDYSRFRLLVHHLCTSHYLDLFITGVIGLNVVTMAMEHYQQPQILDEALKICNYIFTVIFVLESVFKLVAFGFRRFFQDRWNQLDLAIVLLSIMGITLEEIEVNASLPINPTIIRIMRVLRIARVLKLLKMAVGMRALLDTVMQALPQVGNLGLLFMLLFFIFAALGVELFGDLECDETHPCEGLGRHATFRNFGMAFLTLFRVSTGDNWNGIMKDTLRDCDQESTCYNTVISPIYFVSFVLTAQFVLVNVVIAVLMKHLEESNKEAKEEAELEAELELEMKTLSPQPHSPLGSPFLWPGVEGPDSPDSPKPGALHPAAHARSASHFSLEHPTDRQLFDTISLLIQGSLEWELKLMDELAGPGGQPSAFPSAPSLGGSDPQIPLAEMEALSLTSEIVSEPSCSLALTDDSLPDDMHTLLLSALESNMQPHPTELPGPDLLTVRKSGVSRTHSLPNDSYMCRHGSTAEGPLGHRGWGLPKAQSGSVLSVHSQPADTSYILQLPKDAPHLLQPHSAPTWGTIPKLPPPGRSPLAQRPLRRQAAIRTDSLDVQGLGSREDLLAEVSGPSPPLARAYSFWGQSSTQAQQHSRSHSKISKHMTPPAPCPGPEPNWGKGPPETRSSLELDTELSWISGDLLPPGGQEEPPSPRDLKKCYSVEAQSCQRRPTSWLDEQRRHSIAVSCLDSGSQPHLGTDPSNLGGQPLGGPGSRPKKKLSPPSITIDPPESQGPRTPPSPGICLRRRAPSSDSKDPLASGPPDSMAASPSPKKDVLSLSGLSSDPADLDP

For the molecule `COC(=O)C(CCCN(C)CCCc1nc2ccccc2[nH]1)(c1ccc(Br)cc1)C(C)C` (stereo unspecified), the Stability result with Plasma was “Stable”. Further, the half-life turned out to be 120 min in data set [1] and 77.7 min in [3]. This molecule also showed an AUC(0-inf) in [2] of 906 ng·h/mL.
As to `COc1ccccc1N1CCN(CCCC(C(=O)O)(c2ccc(Br)cc2)C(C)C)CC1` (stereo unspecified), the IC50 turned out to be 3260 nM in data set [4] and 3.96 µM in data set [5].
For `COC(=O)C(CCC(=O)N1CCN(c2ccccc2OC)CC1)(c1ccc(Br)cc1)C(C)C` (stereo unspecified), the IC50 in data set [6] amounted to 5.9 µM; in data set [4], 654 nM. The AUC(0-inf) in [7] was 467 ng·h/mL; in data set [2] it was 5080 ng·h/mL. Moreover, the Cmax in data set [8] amounted to 218 ng/mL. Moreover, the Stability entry with Plasma is given as “Stable”. In addition, the half-life in data set [1] was 220 min; in data set [10], 132 min; in data set [3], 294 min. Also, the bioavailability in [9] came to 9.2%. Besides, the Tmax in data set [11] was 30 min.
Consider `COC(=O)C(CCCN1CC=C(c2ccccc2OC)CC1)(c1ccc(Br)cc1)C(C)C` (stereo unspecified), for which the IC50 amounted to 3240 nM in data set [4] and 1.26 µM in data set [5].
Consider `COC(=O)C(CCC(=O)N(C)CCCc1nc2ccccc2[nH]1)(c1ccc(Br)cc1)C(C)C` (stereo unspecified), for which the IC50 turned out to be 5.42 µM in data set [6], 56 nM in data set [4] and 12.5 µM in data set [5]. In addition, the Ratio IC50 in the data set on HEK293 [12] was more than 220; in the data set on HEK293 [13], 96.8. Moreover, the values for the AUC(0-inf) in data set [7] and in [2] were 5800 ng·h/mL and 9620 ng·h/mL, respectively. Moreover, in [8], the concentration peaked (Cmax) at 4580 ng/mL. Besides, in the data set on Plasma, the Stability entry was “Stable”. Besides, the half-life stood at 240 min in [1], 47.7 min in data set [10] and 106 min in data set [3]. The molecule also displayed a bioavailability in data set [9] of 60.3%. For the same molecule, the Tmax in [11] is 30 min.
Regarding `CC(C)C(CCCN(C)CCCc1nc2ccccc2[nH]1)(C(=O)O)c1ccc(Br)cc1` (stereo unspecified), the values for the IC50 in data set [4] and in data set [5] were 1360 nM and 2.34 µM, respectively.
In the case of `COC(=O)C(CCCN1CCC(c2ccccc2OC)CC1)(c1ccc(Br)cc1)C(C)C` (stereo unspecified), in [4], the IC50 was 2650 nM.

The half-life is the time needed for the level to fall by half in the phase considered. A higher half-life goes with slow loss. For orientation: AUC(0-inf) means total exposure, with the tail of the curve extrapolated. The low end stands for low exposure, the high end for high exposure. In general, IC50 refers to the midpoint of a concentration-inhibition curve. For orientation: Cmax means the highest concentration seen after dosing. In general, bioavailability refers to the share of a dose that reaches the circulation, judged against a reference dose that is usually intravenous. High values mean much systemic uptake, low ones little systemic uptake. The Tmax is the time from dosing to the highest level.

For the origin of these results see ChEMBL document CHEMBL3112460, “Successful reduction of off-target hERG toxicity by structural modification of a T-type calcium channel blocker” (Bioorg Med Chem Lett, 2014).
